Residual activity data for 42 molecules are collected here from ChEMBL document CHEMBL3039007, “Structure-based identification of OATP1B1/3 inhibitors” (Mol Pharmacol, 2013).

Structures are written as SMILES.

Data set [1] addresses T1, Solute carrier organic anion transporter family member 1B3 (Homo sapiens, UniProt Q9NPD5).
T1 sequence (Q9NPD5 whole entry): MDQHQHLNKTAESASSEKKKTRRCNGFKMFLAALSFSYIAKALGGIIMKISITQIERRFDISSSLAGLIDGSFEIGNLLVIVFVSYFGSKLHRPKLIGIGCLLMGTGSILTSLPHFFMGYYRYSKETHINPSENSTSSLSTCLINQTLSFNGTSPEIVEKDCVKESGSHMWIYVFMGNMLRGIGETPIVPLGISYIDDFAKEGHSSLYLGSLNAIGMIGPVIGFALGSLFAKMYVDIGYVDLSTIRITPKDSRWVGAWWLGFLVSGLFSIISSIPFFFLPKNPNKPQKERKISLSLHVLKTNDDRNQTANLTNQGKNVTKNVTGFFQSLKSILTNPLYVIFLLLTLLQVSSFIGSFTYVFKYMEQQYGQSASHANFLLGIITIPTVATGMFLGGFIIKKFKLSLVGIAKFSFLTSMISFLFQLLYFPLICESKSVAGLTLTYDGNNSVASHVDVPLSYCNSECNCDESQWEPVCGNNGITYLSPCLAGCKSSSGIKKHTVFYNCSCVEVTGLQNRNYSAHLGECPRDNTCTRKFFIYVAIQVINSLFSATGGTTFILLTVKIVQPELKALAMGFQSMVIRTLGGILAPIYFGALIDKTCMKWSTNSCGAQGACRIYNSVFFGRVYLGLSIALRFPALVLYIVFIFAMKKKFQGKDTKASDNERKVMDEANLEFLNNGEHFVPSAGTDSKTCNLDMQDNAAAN
The following applies: chinese hamster, cho, 10 µM.

Data set [2] concerns the target T2, Solute carrier organic anion transporter family member 1B1 (Homo sapiens, UniProt Q9Y6L6).
T2 sequence (Q9Y6L6 whole entry): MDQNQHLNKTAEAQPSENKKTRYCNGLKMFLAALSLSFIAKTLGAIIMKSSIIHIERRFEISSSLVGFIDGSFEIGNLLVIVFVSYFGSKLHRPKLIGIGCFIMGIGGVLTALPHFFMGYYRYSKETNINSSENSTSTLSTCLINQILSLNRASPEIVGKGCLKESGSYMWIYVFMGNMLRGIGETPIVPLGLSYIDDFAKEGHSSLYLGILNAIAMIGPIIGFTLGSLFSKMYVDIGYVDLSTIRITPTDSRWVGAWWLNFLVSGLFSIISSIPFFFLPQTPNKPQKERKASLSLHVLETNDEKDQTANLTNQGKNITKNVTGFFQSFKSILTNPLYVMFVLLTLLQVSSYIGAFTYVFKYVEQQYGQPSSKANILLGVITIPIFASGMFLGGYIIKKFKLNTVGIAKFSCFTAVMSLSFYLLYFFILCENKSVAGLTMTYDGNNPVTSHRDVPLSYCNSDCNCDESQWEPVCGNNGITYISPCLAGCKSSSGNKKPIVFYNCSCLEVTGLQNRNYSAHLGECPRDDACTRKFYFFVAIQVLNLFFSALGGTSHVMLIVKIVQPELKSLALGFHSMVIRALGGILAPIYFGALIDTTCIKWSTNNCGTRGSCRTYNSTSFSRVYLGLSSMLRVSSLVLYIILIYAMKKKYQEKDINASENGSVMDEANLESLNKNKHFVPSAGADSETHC
The note with it: chinese hamster, cho, 10 µM.

As a reminder, the residual activity is the signal under treatment as a percentage of the control signal. `COC(=O)C[C@H]1C(C)(C)C(=O)[C@H]2CC3=C4CC(OC)O[C@@H](c5ccoc5)[C@@]4(C)CCC3[C@]1(C)C2=O` (some centres undefined) [16-DEOXOMEXICANOLIDE 16-METHYL ETHER]: the values for the residual activity in data set [1] and in data set [2] were 141.6% and 53.47%, respectively.
For `CC(C)c1ccc2c(c1)CCC1[C@](C)(CN)CCC[C@]21C.O=S(=O)(O)O` (some centres undefined) [18-AMINOABIETA-8,11,13-TRIENE SULFATE], the figures for the residual activity in data set [1] and in data set [2] were 99.03% and 102.4%, respectively.
The like results for `CC(C)c1c(O)ccc2c1CC[C@H]1[C@@](C)(CO)CCC[C@]21C` [19-HYDROXYTOTAROL] were, in that order, 20.52% and 15.89%.
The like results for `CC(C)(O)CC[C@@H](O)[C@](C)(O)[C@H]1CC[C@@]2(O)C3=CC(=O)[C@@H]4C[C@@H](O)[C@@H](O)C[C@]4(C)[C@H]3CC[C@]12C` [20-HYDROXYECDYSONE] were, in that order, 127.1% and 115%.
The like results for `C[C@H](N)[C@H](O)c1ccccc1` [(1R,2S)-PHENYLPROPANOLAMINE] were, in that order, 87% and 97.41%.
As for `CC(=O)C1=C(O)C=C2Oc3c(C(C)=O)c(O)c(C)c(O)c3[C@@]2(C)C1=O` [(+)-USNIC ACID], the residual activity is reported as 69.13% in data set [1] and 31.05% in data set [2].
The like results for `Oc1cc(O)c2c(c1)O[C@H](c1ccc(O)c(O)c1)[C@H](O)C2` [(-)-EPICATECHIN] were, in that order, 77.92% and 80.37%.
The like results for `CN[C@@H](Cc1c[nH]c2ccccc12)C(=O)O` [ABRINE] were, in that order, 98.3% and 86.73%.
The like results for `COc1ccc(-c2cc(=O)c3c(OC(C)=O)cc(OC(C)=O)cc3o2)cc1` [ACACETIN DIACETATE] were, in that order, 127.6% and 133.5%.
Turning to `CCCC(=O)Nc1ccc(OCC(O)CNC(C)C)c(C(C)=O)c1.Cl` (centres undefined) [ACEBUTOLOL HYDROCHLORIDE], the residual activity in data set [1] was 93.16%; in data set [2], 74.42%.
The like results for `CCN(CC)CCNC(=O)c1ccc(NC(C)=O)cc1.Cl` [ACECAINIDE HYDROCHLORIDE] were, in that order, 90.6% and 70.32%.
For `COc1ccc2c(c1)c(CC(=O)OCC(=O)O)c(C)n2C(=O)c1ccc(Cl)cc1` [ACEMETACIN], the results for the residual activity in data set [1] and in data set [2] were 84.99% and 57.75%, respectively.
The like results for `COP(=O)(NC(C)=O)SC` (centres undefined) [ACEPHATE] were, in that order, 83.6% and 75.83%.
The like results for `CC(=O)Nc1ccc(O)cc1` [ACETAMINOPHEN] were, in that order, 96.68% and 99.98%.
Take `CC(=O)Nc1ccc(OC(=O)c2ccccc2O)cc1` [ACETAMINOSALOL]: the figures for the residual activity in data set [1] and in data set [2] were 102.7% and 103.1%, respectively.
Consider `CC(=O)Nc1ccccc1` [ACETANILIDE], for which the residual activity in data set [1] is recorded as 100.2%; in data set [2], 96.78%.
For the molecule `CC(=O)Nc1cc([As](=O)(O)O)ccc1O` [ACETARSONE], the values for the residual activity in data set [1] and in data set [2] were 85.71% and 58.73%, respectively.
The like results for `CC(=O)Nc1nnc(S(N)(=O)=O)s1` [ACETAZOLAMIDE] were, in that order, 84.51% and 90.74%.
With `CCOCN(C(=O)CCl)c1c(C)cccc1CC` [ACETOCHLOR], the residual activity turned out to be 84.4% in data set [1] and 74.59% in data set [2].
For `CC(=O)NO` [ACETOHYDROXAMIC ACID], the residual activity in data set [1] is 100.9%; in data set [2], 91.26%.
The like results for `COc1cc(C(C)=O)cc(OC)c1O` [ACETOSYRINGONE] were, in that order, 115.4% and 104.7%.
The like results for `CC(=O)Nc1c(I)cc(I)c(C(=O)O)c1I` [ACETRIZOIC ACID] were, in that order, 98.63% and 133.1%.
The like results for `CC(=O)O[C@H]1CC[C@]2(C)[C@H]3CC=C4[C@@H]5CC(C)(C)CC[C@]5(C(=O)O)CC[C@@]4(C)[C@]3(C)CC[C@H]2C1(C)C` [ACETYL OLEANOLIC ACID] were, in that order, 24.66% and 37.04%.
In the case of `CCOC(=O)C(Cc1ccc(O)cc1)NC(C)=O` (centres undefined) [ACETYL TYROSINE ETHYL ESTER], the residual activity in data set [1] stood at 103.5%; in data set [2], 118.5%.
The like results for `CC(=O)N[C@@H](CS)C(=O)O` [ACETYLCYSTEINE] were, in that order, 89.21% and 82.21%.
The like results for `CC(=O)NCCc1c[nH]c2ccc(O)cc12` [ACETYLSEROTONIN] were, in that order, 91.29% and 100.7%.
The like results for `CC(=O)N[C@@H](Cc1c[nH]c2ccccc12)C(N)=O` [ACETYLTRYPTOPHANAMIDE] were, in that order, 60.38% and 85.16%.
Regarding `CC(=O)N[C@@H](Cc1c[nH]c2ccccc12)C(=O)O` [ACETYLTRYPTOPHAN], the results for the residual activity in data set [1] and in data set [2] were 85.99% and 63.36%, respectively.
The like results for `CC(=O)NCCCCCC(=O)O` [ACEXAMIC ACID] were, in that order, 111.3% and 144.2%.
As to `N[C@H](C(=O)O)[C@@H]1CC(Cl)=NO1` [ACIVICIN], the residual activity was 113.3% in data set [1] and 137.7% in data set [2].
Take `CC[C@@]1(O)C[C@H](O[C@H]2C[C@H](N(C)C)[C@H](O[C@H]3C[C@H](O)[C@H](O[C@H]4CCC(=O)[C@H](C)O4)[C@H](C)O3)[C@H](C)O2)c2c(cc3c(c2O)C(=O)c2c(O)cccc2C3=O)[C@H]1C(=O)OC` [ACLARUBICIN]: the residual activity stood at 107.1% in data set [1] and 95.52% in data set [2].
`O=C(O)/C=C(\CC(=O)O)C(=O)O` [ACONITIC ACID]: the residual activity amounted to 88.62% in data set [1] and 102.5% in data set [2].
The like results for `CCN1C[C@]2(COC)[C@H](O)C[C@H](OC)[C@@]34[C@@H]5C[C@@]6(O)[C@H](OC(=O)c7ccccc7)[C@@H]5[C@@](OC(C)=O)([C@@H]([C@H](OC)[C@H]23)[C@@H]14)[C@@H](O)[C@@H]6OC` [ACONITINE] were, in that order, 85.31% and 65.77%.
On to `CCCCCCc1ccc(O)cc1O.Nc1c2ccccc2nc2ccccc12` [ACRISORCIN], for which the residual activity was found to be 120.2% in data set [1] and 70.31% in data set [2].
As for `Nc1nc2c(ncn2COCCO)c(=O)[nH]1` [ACYCLOVIR], the residual activity in data set [1] worked out at 105.5%; in data set [2], 103.4%.
The like results for `Nc1ncnc2nc[nH]c12` [ADENINE] were, in that order, 81.98% and 90.14%.
In the case of `Nc1ncnc2c1ncn2[C@@H]1O[C@H](COP(=O)(O)O)[C@@H](O)[C@H]1O` [ADENOSINE PHOSPHATE], the residual activity in data set [1] was 90.72%; in data set [2] it was 91.52%.
The like results for `CCN(CC)CCOC(=O)C(c1ccccc1)c1ccccc1.Cl` [ADIPHENINE HYDROCHLORIDE] were, in that order, 95.82% and 59.48%.
`CC(=O)NC(Cc1ccccc1)C(=O)O` (centres undefined) [AFALANINE]: the residual activity is 112.5% in data set [1] and 114.2% in data set [2].
On to `CC1=CCCC2C1(C)CCC(C)C2(C)CC/C(C)=C/Cn1c[n+](C)c2c(N)ncnc21` (centres undefined) [AGELASINE (stereochemistry of diterpene unknown)], for which the residual activity is listed as 93.91% in data set [1] and 56.98% in data set [2].
The like results for `N=C(N)NCCCCN.O=S(=O)(O)O` [AGMATINE SULFATE] were, in that order, 110% and 111.9%.
The like results for `CC[C@H]1[C@@H]2C[C@H]3[C@@H]4N(C)c5ccccc5[C@]45C[C@@H]([C@@H]2[C@H]5O)N3[C@@H]1O` [AJMALINE] were, in that order, 91.52% and 34.58%.
